According to US20040259104A1, “Test” (priority 2002, published 2004):
“And” between values parts separate entries of the source, which are not always exact repeats. Equal values may be shown once.

What was measured:
Assay type in all cases: in vivo, human
[1] = system: feedback sensitivity of the HPA-axis; assay: Dexamethasone suppression test (DST): serum cortisol after DEX; conditions: mean
Description: A total of 202 human subjects participated in the study. Their age varied between 53 and 82 years ([…] with mean ages of 67.7±0.6 and 65.9±0.6 years, respectively). They were living in a suburb of Rotterdam, The Netherlands. These subjects were participants in the Rotterdam Study, a population-based cohort study (7983 subjects) of the determinants of chronic disabling diseases in the elderly and were selected at random. Subjects with acute, psychiatric or endocrine diseases, including diabetes mellitus treated with medication were not invited. Compared to all participants of the Rotterdam study, there were no differences in age and gender distribution and cardiovascular risk factors. The subjects gave their written consent to participate in the study, which received the approval of the Medical Ethics Committee of the Erasmus University Medical School. In order to get more information about the individual variability of the feedback sensitivity of the HPA-axis all 202 subjects were invited for a second DST with a lower dose DEX (0.25 mg) two and a half years later. 149 subjects agreed to participate in this second test (72 men and 77 women).
(§1) The two dexamethasone suppression tests (DST) were performed as described previously (Huizenga et al, J.Clin.Endocrinol Metab.1998; 83(1): 47-54). In brief, venous blood was obtained in the morning between 8 and 9 am after an overnight fast for serum cortisol and insulin measurements. Participants were instructed to ingest a tablet of 1 mg (and 0.25 mg, respectively) DEX at 11.00 pm. The next morning fasting blood was drawn by venapuncture at the same time as the previous morning. To check for compliance and possible abnormalities in the metabolism of DEX, the DEX concentration was also measured in a radioimmunoassay using antiserum obtained from IgG Corporation (Nashville, Tenn.). Intra- and interassay variations were below 8.5% and 14.2% respectively.
(§2) Serum cortisol concentrations were determined using RIA-kits obtained from Diagnostics Products Corporation (Los Angeles, Calif.). Intra- and interassay variations were below 8.0% and 9.5% respectively. Circulating insulin and cortisol binding globulin concentrations were determined using commercially available ratioimmunoassays (Medgenix Diagnostics, Brussels, Belgium). Intra- and interassay variations were 8.0% and 13.7% respectively. Estradiol, androstenedione and DHEAS concentrations were determined using RIA-kits obtained from Diagnostics Products Corporation. Intra- and interassay variations; estradiol: 7.0% and 8.1% androstenedione: 8.3% and 9.2%, DHEAS: 5.3% and 7.0% SHBG was assayed with an commercially available immunoradiometric assay (Diagnostics Products Corporation; intra- and interassay variations were 3.6% and 6.9% respectively). Testosterone was measured with a non-commercial radioimmunoassay (intra- and interassay variations 3.6% and 6.9%). Commercially available immunoradiometric assays were used for the measurement of IGF-BP1 (Diagnostic System Laboratories Inc.; intra- and interassay variations 4.0% and 6.0%).

[2] = DEX concentration by radioimmunoassay after DST; conditions: mean
Experimental: as §1

[3] = Fasting serum insulin after DEX administration (DST); conditions: for Post DEX insulin / Δ insulin: mean
Experimental: as §1, §2

[4] = Fasting glucose after DEX administration (DST); conditions: 0.25 mg DEX
Experimental: as §1
Glucose, total cholesterol, HDL-chlesterol and triglycerides were measured using standard laboratory methods. Low density lipoprotein (LDL)-cholesterol was calculated using the following formula: LDL-cholesterol=total cholesterol−((triglycerides/5)+HDL-cholesterol).

[5] = 0.25 mg DEX, ER22/23EK-carriers (n = 13), second examination
[6] = 0.25 mg DEX, non-carriers (n = 136), second examination

Compound `C[C@@H]1C[C@H]2[C@@H]3CCC4=CC(=O)C=C[C@]4(C)[C@@]3(F)[C@@H](O)C[C@]2(C)[C@@]1(O)C(=O)CO` [DEX, dexamethasone] has a PostDEX cortisol [1, 5] of 267.5 nmol/L, a Δ cortisol [1, 5] of 259.7 nmol/L and a PostDEX cortisol [1, 6] of 259.5 nmol/L. For the same compound, the Δ cortisol [1, 6] was 285.8 nmol/L, the PostDEX cortisol ([1]; 1 mg DEX oral at 11.00 pm, next morning fasting, ER22/23EK-carriers (n = 18), first examination) was 57.9 nmol/L and the PostDEX cortisol ([1]; 1 mg DEX oral at 11.00 pm, next morning fasting, non-carriers (n = 184), first examination) was 33.3 nmol/L. The Δ cortisol ([1]; cortisol suppression in reaction to 1 mg DEX, ER22/23EK-carriers (n = 18)) was 504.9 nmol/L, the Δ cortisol ([1]; cortisol suppression in reaction to 1 mg DEX, non-carriers (n = 184)) was 481.4 nmol/L and the DEX concentration ([2]; morning after 0.25 mg DEX, ER22/23EK-carriers (n = 13)) was 2.88 nmol/L. The DEX concentration ([2]; morning after 0.25 mg DEX, non-carriers (n = 136)) was 2.85 nmol/L, the DEX concentration ([2]; morning after 1 mg DEX, ER22/23EK-carriers (n = 18)) was 6.63 nmol/L and the DEX concentration ([2]; morning after 1 mg DEX, non-carriers (n = 184)) was 7.32 nmol/L. For the same compound, the “Post DEX insulin” value ([3]; 0.25 mg DEX, ER22/23EK-carriers (n = 10), second examination) was 10.0 mU/l, the “Post DEX insulin” value ([3]; 0.25 mg DEX, non-carriers (n = 105), second examination) was 14.2 mU/l and the “insulin level after DEX administration” value ([3]; 0.25 mg DEX, total group of 115 subjects, 14.7 before, p=0.02) was 13.9±0.50 mU/L. The “Post DEX insulin” value ([3]; 1 mg DEX, ER22/23EK-carriers (n = 15), first examination) was 14.4 mU/l, the “insulin concentration after DEX administration” value ([3]; 1 mg DEX, all 182 subjects together, 11.5±5.15 before, p<0.001) was 17.2±8.41 mU/L and the “Post DEX insulin” value ([3]; 1 mg DEX, non-carriers (n = 167), first examination) was 17.4 mU/l. The Δ insulin ([3]; change in response to 0.25 mg DEX, ER22/23EK-carriers (n = 10)) was 0.01 mU/l, the Δ insulin ([3]; change in response to 0.25 mg DEX, non-carriers (n = 105)) was −0.92 mU/l and the Δ insulin ([3]; change in response to 1 mg DEX, ER22/23EK-carriers (n = 15)) was 5.5±1.3 mU/l and 5.5 mU/l. The Δ insulin ([3]; change in response to 1 mg DEX, non-carriers (n = 167)) was 5.7±0.6 mU/l and 5.7 mU/l, the “glucose concentration after the 0.25 mg DST” value ([4]; ER22/23EK-carriers) was 5.3 ± 0.17 mmol/L and the “glucose concentration after DST” value ([4]; all subjects, 5.6±0.06 before, p=0.004) was 5.5 ± 0.05 mmol/L. The “glucose concentration after the 0.25 mg DST” value ([4]; non-carriers) was 5.5 ± 0.05 mmol/L.
